Data from patent publication US20110022129A1, “NANOPARTICLES FOR PHOTODYNAMIC THERAPY” (priority 2007, published 2011).
Values after ≈ are worked out from the molar mass of the structure shown.

Experiments:
[1] = physchem; settings: aqueous with cosolvent or surfactant or cyclodextrin, kinetic from dmso stock
Description: Nanoparticles were isolated as previously described, and the concentration of free β-carotene in the filtrate measured.

[2] = system: AB12, murine malignant pleural mesothelioma (MPM); assay: External-beam (980 nm infrared) nanophosphor-mediated photodynamic therapy of AB12 flank tumors in mice; assay type: in vivo, mouse (BALB/cJ); settings: for total number of surviving animals: sixty day observation, survivors/group size
Description: Six to twelve week old, female BALB/cJ (AB12 tumor host) mice, obtained pathogen-free from Taconic Farms, were used for all of the experiments. Animals were kept in conventional conditions in micro-isolator cages in a laminar flow unit under ambient light with full access to food and water during experiments.
AB12, murine malignant pleural mesothelioma (MPM) was utilized for tumor inoculation. Cells were maintained in complete DMEM/F12 culture media in a 37° C. humidified 5% CO2 incubator.
Seventy balb/C mice were inoculated with 5×10^5 AB12, malignant mesothelioma cells via subcutaneous flank injection. The subsequent tumors were measured using digital calipers three times per week until the tumors reached ˜200-300 mm^3 at which time the mice were given their first treatment. Mice were divided into […]. The groups were as follows: i. Control, ii. Infrared light-Nanophosphor-Photosensitizer (IR-NP-PS), iii. IR-NP, iv. IR-PS, v. IR alone, vi. NP alone, and vii. PS alone. Groups ii, iii, and vi were administered intra-tumoral injections with 100 μl of 25 mg/ml nanophosphor suspension in saline at 72 and 48 h prior to only the first treatment. Groups ii, iv, and vii were administered weekly intra-peritoneal (i.p.) injections of 10 mg/kg Photofrin™, twenty-four hours before first treatment of each week.
For this procedure mice were anesthetized with i.p. ketamine and xylazine, 80 mg/kg and 12 mg/kg, respectively. A maximum dose of 1.0 W of 980 nm light (BW Tek) at the treatment surface was measured using an IR thermopile detector (Coherent, Inc) for a total dose of 28.3 J/cm^2. Pulsed light delivery method of 1 second ON, 2 seconds OFF for 1.5 hours was utilized to minimize damage of healthy tissue due to heat from the infrared light by allowing the tissue to dissipate the heat between delivery cycles. […] Over the course of the entire treatment program tumors were measured three times weekly and mice were monitored for signs of morbidity for 60 days or until tumors reached endpoint of 500 mm^3.

Row | Molecule | solubility [1] | tumor regression ([2]; over treatment program, in words) | total number of surviving animals [2]
1 | CC1=C(/C=C/C(C)=C/C=C/C(C)=C/C=C/C=C(C)/C=C/C=C(C)/C=C/C2=C(C)CCCC2(C)C)C(C)(C)CCC1 [β-carotene] | ~50 µg/mL (≈ 93.1 µM) | – | –
2 | Photofrin [IR-PS] | – | No animals | 0/10
3 | Photofrin [PS alone] | – | – | 0/9
